Measured values reported in publication PMC4456433, “Chemical activation of the mechanotransduction channel Piezo1” (eLife, 2015).

Columns and labels:
Format in all cases: cell-based
hPiezo1 = molecular target: T1, hPiezo1 (Homo sapiens, UniProt Q92508); experiment: FLIPR calcium influx (Fluo3), transfected HEK293T, 384-well; details: agonist; pH 7.4, HBSS with 1.26 mM CaCl2; unreliable (compound insolubility above ~20 μM)
T1 construct: gene PIEZO1; cDNA transiently transfected in HEK293T cells

mPiezo1 = molecular target: T2, mPiezo1 (Mus musculus, UniProt E2JF22); experiment: as above; details: agonist; pH 7.4, HBSS with 1.26 mM CaCl2; unreliable (compound insolubility above ~20 μM)
T2 construct: gene Piezo1; full-length cDNA transiently transfected in HEK293T (mPiezo1-IRES GFP for imaging and patch clamp); for bilayers purified protein as in Coste et al. 2012

mPiezo2 = molecular target: T3, mPiezo2 (Mus musculus, UniProt Q8CD54); experiment: whole-cell patch clamp of mechanically activated currents, transfected HEK293T; details: 10 μM Yoda1, up to 5 min, -80 mV; selectivity control
T3 construct: gene Piezo2; cDNA transiently transfected in HEK293T cells

T2 sequence (E2JF22 whole entry): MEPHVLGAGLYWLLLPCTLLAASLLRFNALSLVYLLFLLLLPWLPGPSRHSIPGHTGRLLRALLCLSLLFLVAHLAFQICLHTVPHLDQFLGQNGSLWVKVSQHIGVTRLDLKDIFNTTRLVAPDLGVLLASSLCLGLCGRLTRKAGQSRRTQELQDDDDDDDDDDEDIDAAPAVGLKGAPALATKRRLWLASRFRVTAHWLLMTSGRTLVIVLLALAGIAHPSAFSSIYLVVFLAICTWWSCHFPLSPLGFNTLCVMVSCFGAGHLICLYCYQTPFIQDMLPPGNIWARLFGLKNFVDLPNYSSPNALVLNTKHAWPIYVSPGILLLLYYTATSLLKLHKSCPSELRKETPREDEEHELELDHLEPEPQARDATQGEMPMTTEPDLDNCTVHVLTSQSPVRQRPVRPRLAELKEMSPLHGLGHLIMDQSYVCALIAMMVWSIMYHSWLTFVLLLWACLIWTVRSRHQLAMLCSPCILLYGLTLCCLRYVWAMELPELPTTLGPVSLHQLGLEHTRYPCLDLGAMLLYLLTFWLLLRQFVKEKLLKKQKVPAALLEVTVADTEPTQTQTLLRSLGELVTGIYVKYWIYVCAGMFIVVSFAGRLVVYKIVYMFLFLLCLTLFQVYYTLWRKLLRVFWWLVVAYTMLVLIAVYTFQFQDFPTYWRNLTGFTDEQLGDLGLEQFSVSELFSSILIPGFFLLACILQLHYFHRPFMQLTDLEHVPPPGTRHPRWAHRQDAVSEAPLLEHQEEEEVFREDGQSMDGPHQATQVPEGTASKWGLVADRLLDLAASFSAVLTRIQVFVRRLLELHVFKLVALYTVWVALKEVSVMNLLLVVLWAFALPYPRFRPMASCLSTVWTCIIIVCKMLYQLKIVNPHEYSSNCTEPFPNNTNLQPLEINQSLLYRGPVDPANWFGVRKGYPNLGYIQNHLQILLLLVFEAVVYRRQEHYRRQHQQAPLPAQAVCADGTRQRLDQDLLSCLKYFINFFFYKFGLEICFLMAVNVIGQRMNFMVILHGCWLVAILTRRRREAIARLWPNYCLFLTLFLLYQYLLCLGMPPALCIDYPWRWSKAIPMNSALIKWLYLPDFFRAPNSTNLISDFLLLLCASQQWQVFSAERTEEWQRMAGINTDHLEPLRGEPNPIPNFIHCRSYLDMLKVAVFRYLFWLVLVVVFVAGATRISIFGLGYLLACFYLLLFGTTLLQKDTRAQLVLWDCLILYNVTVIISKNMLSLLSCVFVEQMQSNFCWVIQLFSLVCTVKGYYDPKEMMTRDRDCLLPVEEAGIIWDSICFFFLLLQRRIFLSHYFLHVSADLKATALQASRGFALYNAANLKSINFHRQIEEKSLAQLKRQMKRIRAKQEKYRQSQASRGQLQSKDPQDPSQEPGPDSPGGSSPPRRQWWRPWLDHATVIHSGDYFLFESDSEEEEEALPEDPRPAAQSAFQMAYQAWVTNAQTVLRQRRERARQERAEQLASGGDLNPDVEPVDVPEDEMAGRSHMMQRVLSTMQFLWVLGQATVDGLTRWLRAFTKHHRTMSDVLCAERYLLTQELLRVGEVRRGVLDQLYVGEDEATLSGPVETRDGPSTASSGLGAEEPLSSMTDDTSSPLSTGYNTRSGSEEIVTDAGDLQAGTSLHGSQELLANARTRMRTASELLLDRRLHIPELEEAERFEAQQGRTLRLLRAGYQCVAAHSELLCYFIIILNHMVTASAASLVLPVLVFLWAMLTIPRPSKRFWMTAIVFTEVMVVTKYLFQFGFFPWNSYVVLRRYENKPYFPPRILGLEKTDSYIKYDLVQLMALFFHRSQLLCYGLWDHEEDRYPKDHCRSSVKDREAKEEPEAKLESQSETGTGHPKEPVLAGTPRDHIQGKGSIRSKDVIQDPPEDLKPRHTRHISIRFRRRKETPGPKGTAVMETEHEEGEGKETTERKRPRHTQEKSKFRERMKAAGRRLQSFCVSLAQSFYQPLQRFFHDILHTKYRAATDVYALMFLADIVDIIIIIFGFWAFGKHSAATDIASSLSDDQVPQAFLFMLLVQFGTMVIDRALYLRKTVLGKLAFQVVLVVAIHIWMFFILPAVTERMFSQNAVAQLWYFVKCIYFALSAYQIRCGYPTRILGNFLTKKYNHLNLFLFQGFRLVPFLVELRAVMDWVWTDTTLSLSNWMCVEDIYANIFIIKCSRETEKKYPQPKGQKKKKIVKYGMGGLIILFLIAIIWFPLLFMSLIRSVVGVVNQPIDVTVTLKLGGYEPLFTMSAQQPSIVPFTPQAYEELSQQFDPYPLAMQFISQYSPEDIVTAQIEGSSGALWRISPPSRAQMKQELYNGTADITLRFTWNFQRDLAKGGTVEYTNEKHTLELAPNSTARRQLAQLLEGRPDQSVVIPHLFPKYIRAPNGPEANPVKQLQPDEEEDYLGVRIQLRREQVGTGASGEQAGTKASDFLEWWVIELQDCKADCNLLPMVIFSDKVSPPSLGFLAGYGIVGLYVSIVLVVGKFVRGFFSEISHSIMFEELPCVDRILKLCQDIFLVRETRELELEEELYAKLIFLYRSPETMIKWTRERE
T1 sequence (Q92508 whole entry): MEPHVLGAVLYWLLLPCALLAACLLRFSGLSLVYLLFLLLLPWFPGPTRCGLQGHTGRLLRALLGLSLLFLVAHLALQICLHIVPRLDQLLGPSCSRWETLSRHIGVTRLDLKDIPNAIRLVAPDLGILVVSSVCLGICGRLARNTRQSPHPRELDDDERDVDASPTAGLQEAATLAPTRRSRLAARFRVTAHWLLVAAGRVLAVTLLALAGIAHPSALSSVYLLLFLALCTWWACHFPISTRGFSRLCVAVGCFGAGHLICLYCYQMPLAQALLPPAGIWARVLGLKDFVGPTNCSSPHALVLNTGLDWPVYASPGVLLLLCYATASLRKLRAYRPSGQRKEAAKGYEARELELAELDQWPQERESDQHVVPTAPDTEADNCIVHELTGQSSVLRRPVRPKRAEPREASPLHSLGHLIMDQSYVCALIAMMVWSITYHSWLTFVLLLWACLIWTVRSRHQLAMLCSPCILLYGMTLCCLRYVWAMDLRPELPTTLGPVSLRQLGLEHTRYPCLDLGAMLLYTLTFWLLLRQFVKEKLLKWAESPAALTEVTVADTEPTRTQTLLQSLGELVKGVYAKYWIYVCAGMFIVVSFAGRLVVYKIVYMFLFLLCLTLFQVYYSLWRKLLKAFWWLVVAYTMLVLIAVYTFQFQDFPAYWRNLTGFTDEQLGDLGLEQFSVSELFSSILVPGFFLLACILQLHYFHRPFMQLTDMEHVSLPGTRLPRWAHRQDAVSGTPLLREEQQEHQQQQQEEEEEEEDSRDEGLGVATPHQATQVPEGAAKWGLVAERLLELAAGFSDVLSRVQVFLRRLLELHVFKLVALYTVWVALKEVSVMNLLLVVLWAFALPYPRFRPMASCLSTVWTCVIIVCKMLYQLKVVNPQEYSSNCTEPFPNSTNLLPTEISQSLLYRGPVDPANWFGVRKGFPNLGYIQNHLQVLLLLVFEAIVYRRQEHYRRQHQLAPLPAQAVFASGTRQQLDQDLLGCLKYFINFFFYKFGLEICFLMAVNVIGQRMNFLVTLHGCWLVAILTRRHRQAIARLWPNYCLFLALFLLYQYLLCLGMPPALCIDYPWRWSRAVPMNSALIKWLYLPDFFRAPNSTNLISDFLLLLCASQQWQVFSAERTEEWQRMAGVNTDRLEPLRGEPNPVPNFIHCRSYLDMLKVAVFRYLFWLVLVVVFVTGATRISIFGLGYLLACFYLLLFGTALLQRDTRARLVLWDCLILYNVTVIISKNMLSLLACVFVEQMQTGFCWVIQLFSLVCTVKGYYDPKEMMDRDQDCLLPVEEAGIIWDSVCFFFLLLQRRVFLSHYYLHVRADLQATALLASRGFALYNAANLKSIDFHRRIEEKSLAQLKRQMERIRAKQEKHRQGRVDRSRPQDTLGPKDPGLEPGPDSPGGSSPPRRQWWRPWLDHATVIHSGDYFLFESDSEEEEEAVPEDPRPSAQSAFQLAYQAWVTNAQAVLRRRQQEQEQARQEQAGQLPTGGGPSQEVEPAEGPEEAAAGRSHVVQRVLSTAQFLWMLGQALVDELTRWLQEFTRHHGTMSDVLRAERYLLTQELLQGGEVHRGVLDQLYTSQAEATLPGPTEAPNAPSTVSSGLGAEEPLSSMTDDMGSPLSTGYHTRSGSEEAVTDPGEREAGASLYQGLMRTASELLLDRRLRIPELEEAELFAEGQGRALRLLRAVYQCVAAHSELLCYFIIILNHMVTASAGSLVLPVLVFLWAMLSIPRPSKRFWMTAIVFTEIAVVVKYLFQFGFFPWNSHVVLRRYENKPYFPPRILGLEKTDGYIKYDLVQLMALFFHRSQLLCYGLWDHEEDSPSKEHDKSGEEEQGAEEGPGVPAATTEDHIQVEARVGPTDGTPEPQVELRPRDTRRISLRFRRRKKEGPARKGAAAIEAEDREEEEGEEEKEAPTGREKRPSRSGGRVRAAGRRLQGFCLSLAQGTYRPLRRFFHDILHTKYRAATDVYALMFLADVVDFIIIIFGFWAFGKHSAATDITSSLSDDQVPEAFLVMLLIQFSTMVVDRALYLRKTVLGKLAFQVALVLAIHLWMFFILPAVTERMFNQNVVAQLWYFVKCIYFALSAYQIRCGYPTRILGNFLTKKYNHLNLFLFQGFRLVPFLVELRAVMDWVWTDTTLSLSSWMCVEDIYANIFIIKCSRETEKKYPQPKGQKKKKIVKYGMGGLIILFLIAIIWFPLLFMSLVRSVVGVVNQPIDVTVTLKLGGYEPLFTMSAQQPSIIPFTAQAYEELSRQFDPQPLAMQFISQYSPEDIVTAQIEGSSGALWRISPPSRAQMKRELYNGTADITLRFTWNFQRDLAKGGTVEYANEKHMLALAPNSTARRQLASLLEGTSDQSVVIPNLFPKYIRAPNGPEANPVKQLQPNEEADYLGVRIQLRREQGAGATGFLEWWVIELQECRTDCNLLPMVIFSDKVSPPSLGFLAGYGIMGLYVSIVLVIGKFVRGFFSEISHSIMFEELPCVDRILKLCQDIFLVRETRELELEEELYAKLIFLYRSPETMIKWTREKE

apparent EC50 (hPiezo1): 26.6 (95% CI 20.6 to 34.4) μM
apparent EC50 (mPiezo1): 17.1 (95% CI 13.4 to 21.9) μM
Compound: Clc1cccc(Cl)c1CSc1nnc(-c2cnccn2)s1 [Yoda1]
whole-cell patch clamp of mechanically activated currents, transfected HEK293T (mPiezo2): No effect was observed upon Yoda1 exposure
